Each structure is given as a SMILES string. pIC50: −log10 of the molar value.

For 1 compound, IC50 results are on record in BindingDB's records for doi:10.1016/j.bmcl.2018.06.004 (Peking University, 2018).

Experiment [1] is described as follows: Inhibition of PGPH activity of 20S proteasome in human K562 cells using Z-nLPnLDaminoluciferin as substrate after 2 hrs by luminescence assay.
Experiment [2] in a line: Inhibition of trypsin-like activity of 20S proteasome in human K562 cells using Z-LRRaminoluciferin as substrate after 2 hrs by luminescence assay.

Take `CC(C)C[C@H](NC(=O)[C@H](Cc1ccccc1)NC(=O)N1C/C(=C\c2ccc(F)cc2)C(=O)/C(=C/c2ccc(F)cc2)C1)B(O)O`: the pIC50 in experiment [1] and in experiment [2] was below 4.00 each time.

The term pIC50 denotes the negative decadic logarithm of the IC50, by convention in mol/L. A high value points to a small IC50.
